Source: patent publication US20240254109A1, “SALT CONTAINING PIPERAZINE POLYCYCLIC DERIVATIVE, CRYSTAL FORM THEREOF, PREPARATION METHOD THEREFOR, AND USE THEREOF” (Shanghai Hansoh Biomedical Co., Ltd., priority 2021, published 2024)
Counter-ions that a name gives are not always drawn.

Assays:
[1] = Hygroscopicity experiment of crystal form A of hydrochloride; type: physicochemical
Excerpt: 5 Hygroscopicity Experiment

[2] = Salt form quantification by HPLC-ELSD; type: physicochemical
Procedure: 7. Salt Form Quantification
The number of acids binding in the salt form was quantified by HPLC-ELSD test.
An appropriate amount of NaCl was weighed, and a series of linear solutions of different concentrations with the diluent acetonitrile-water (50:50) was prepared.
The above linear solution and hydrochloride samples solution was taken to filter.
7.3 Experimental results: The content of hydrochloric acid in hydrochloride was calculated according to the external standard method, and the quantitative results of hydrochloride are shown in Table 30.

[3] = Thermodynamic stability experiment of crystal form (pulping in solvents); type: physicochemical; settings: for Results (crystal form after pulping, XRPD): pulped 1 week at room temperature and 50° C.
Procedure: 6. Thermodynamic Stability Experiment of Crystal Form
An organic solvent with a certain solubility was selected. […] The supernatant was discarded, and the solid was dried in vacuum (−0.1 Mpa) overnight at 50° C. The XRPD of the solid was determined and compared with XRPD of raw compound salt.

[4] = Solid stability experiment of crystal form of salt; type: physicochemical
Procedure: 4. Solid Stability Experiment
The physicochemical stability of crystal form of salt of compound N-(trans-3-(2-(4-(2,3-dichlorophenyl)piperazin-1-yl)ethyl)cyclobutyl)oxazole-2-carboxamide under the conditions of light 50001×, high temperature 60° C., high humidity 92.5% RH and high temperature and high humidity 50° C. 75% RH was investigated, which provided a basis for crystal form screening and compound crystal form storage.
About 1 mg of different crystal forms of salt were taken and placed under the conditions of light 50001×, high temperature 60° C., high humidity 92.5% RH, high temperature and high humidity 50° C. 75% RH for 5 days and 10 days. The salt content was determined by HPLC and external standard method, and the change of relevant substances was calculated by chromatographic peak area normalization method.

[5] = Pharmacokinetics study in rats; type: in vivo
Excerpt: 8. Pharmacokinetics Study in Rats

[6] = Pressure crystal transformation test; type: physicochemical; settings: before and after pressure, tablet press at maximum pressure
Excerpt: 4.5 Pressure Crystal Transformation Test
The tablet press was adjusted to the maximum pressure. It was pressed into a tablet and then was subjected to PXRD characterization.

[7] = Crystal form stability study of hydrochloride for 30 days; type: physicochemical; settings: 30 days
Procedure: 9. Crystal Form Stability Study of Hydrochloride for 30 Days
The 30 days stability of hydrochloride of N-(trans-3-(2-(4-(2,3-dichlorophenyl)piperazin-1-yl)ethyl)cyclobutyl)oxazole-2-carboxamide under four conditions of 60° C. (closed), 40° C. & RH 75% (open), 25° C./RH 92.5% (open) and light (5000±500 Lux) was detected, which provided scientific basis for the production, packaging, storage and transportation conditions of drugs.
The diluent 80% methanol solution was added to prepare a solution containing about 0.5 mg/mL hydrochloride. The mixture was sonicated for 30 min to produce a clear solution. 1 mL of the solution was filtered and measured by HPLC. See “2.3.4” for the HPLC analysis method. The content of related substances was calculated according to the peak area normalization method, and the results are shown in Table 32 below.

[8] = Grinding crystal transformation test; type: physicochemical; settings: before and after grinding in a mortar for 5 min
Excerpt: 4.6 Grinding Crystal Transformation Test

[9] = High humidity, 5 Days, listed as Crystal form A of hydrochloride
[10] = High temperature and high humidity, 5 Days
[11] = High temperature and high humidity, 10 Days
[12] = Light, 5 Days, listed as Crystal form A of hydrochloride
[13] = Light, 10 Days, listed as Crystal form A of hydrochloride
[14] = light, 60° C., 92.5% RH, 50° C. 75% RH, 5 and 10 days
[15] = light, 60° C., 92.5% RH, 40° C. & 75% RH

## O=C(N[C@H]1C[C@H](CCN2CCN(c3cccc(Cl)c3Cl)CC2)C1)c1ncco1 [crystal form A of hydrochloride, N-(trans-3-(2-(4-(2,3-dichlorophenyl)piperazin-1-yl)ethyl)cyclobutyl)oxazole-2-carboxamide]
[1]
  stability in humid environments: stable in humid environments
[2]; Batch 1
  Determination of Cl-percentage content in hydrochloride: 7.82%
[2]; Batch 2
  Determination of Cl-percentage content in hydrochloride: 7.90%
[3]
  thermodynamic stability of crystal form: thermodynamically stable crystal form
[3]; 1,4-Dioxane
  Results (crystal form after pulping, XRPD): Crystal form A
[3]; 1 week, room temperature and 50° C.
  crystal form after being pulped by different solvents: does not change
[3]; 2-Butanone
  Results (crystal form after pulping, XRPD): Crystal form A
[3]; 2-Methyl-tetrahydrofuran
  Results (crystal form after pulping, XRPD): Crystal form A
[3]; Acetone
  Results (crystal form after pulping, XRPD): Crystal form A
[3]; Acetonitrile
  Results (crystal form after pulping, XRPD): Crystal form A
[3]; Dichloromethane
  Results (crystal form after pulping, XRPD): Crystal form A
[3]; Ethanol
  Results (crystal form after pulping, XRPD): Crystal form A
[3]; Ethyl acetate
  Results (crystal form after pulping, XRPD): Crystal form A
[3]; Ethyl formate
  Results (crystal form after pulping, XRPD): Crystal form A
[3]; Isopropanol
  Results (crystal form after pulping, XRPD): Crystal form A
[3]; Methanol
  Results (crystal form after pulping, XRPD): Crystal form A
[3]; Methyl tert-butyl ether
  Results (crystal form after pulping, XRPD): Crystal form A
[3]; Tetrahydrofuran
  Results (crystal form after pulping, XRPD): Crystal form A
[3]; Toluene
  Results (crystal form after pulping, XRPD): Crystal form A
[3]; n-Heptane
  Results (crystal form after pulping, XRPD): Crystal form A
[4]; [9]
  Maximum single impurity increase %: 0.06%
  Total impurity increase %: 0.06%
[4]; High humidity, 10 Days
  Maximum single impurity increase %: <0.02%
  Total impurity increase %: <0.02%
[4]; [10]
  Maximum single impurity increase %: <0.02%
  Total impurity increase %: <0.02%
[4]; [11]
  Maximum single impurity increase %: <0.02%
  Total impurity increase %: <0.02%
[4]; High temperature, 5 Days
  Maximum single impurity increase %: <0.02%
  Total impurity increase %: <0.02%
[4]; High temperature, 10 Days
  Maximum single impurity increase %: <0.02%
[4]; High temperature, 10 Days, listed as Crystal form A of hydrochloride
  Total impurity increase %: 0.03%
[4]; [12]
  Maximum single impurity increase %: <0.02%
  Total impurity increase %: <0.02%
[4]; [13]
  Maximum single impurity increase %: <0.02%
  Total impurity increase %: <0.02%
[4]; [14]
  crystal form stability: stable under all conditions
  impurities: not significantly increased
[5]; dose of 100 mg/kg and 30 mg/kg
  exposure versus dose: dose-related
[5]; gavage
  in vivo exposure compared with crystal form B of free base: increased
[6]
  crystal transformation (PXRD): didn't undergo crystal transformation
[7]
  stability: good stability
[7]; [15]
  crystal form change (PXRD): does not undergo crystal form change
  impurities (HPLC): do not increase significantly
[8]
  crystal transformation (PXRD): didn't undergo crystal transformation
